The values that follow are results of earlier work, collected in patent publication US20190054067A1, “COMPOSITIONS AND METHODS FOR TREATING COMPULSIVE-LIKE BEHAVIOR IN A SUBJECT” (UNIVERSITY OF THE SCIENCES, priority 2016, published 2019).

Series [1] deals with compulsive-like BIG male mice. The note with it: compulsive-like BIG mice (Greene-Schloesser et al., 2011); cited from earlier work.
The next series concerns compulsive-like BIG mice. The note with it: cited from earlier work.
Series [2] relates to compulsive-like BIG male mice. The note with it: compulsive-like BIG mice (Greene-Schloesser et al., 2011); cited from earlier work. This is another data set of the same source.

With `CNCCC(Oc1ccc(C(F)(F)F)cc1)c1ccccc1` (stereo not drawn) [fluoxetine], the NB behavior entry in series [1] is on record as “significantly attenuated”. In the series with compulsive-like BIG mice, the overall wheel-running locomotion entry is reported as “failed to reduce”. For the same compound, the MB behavior entry in series [2] was “significantly attenuated”.
